Columns and labels:
ACC levels in shoots = test: Quantification of ACC in shoots by CE-MS; format: in vivo, Arabidopsis thaliana
Experimental: To find out whether differential transcripts reflect changes in hormone levels, we determined concentrations of the ethylene precursor ACC in complete shoots of 9-day-old plants transferred to mannitol. Already 1 h after stress onset, ACC levels were 30% higher in stressed than in control samples, although this was not significant, and by 10 h, the increase was more than 2-fold and significant (FIG. 7B). At the time of analysis, the shoot samples were mainly composed of expanding cells, reflecting the overall importance of ethylene signaling for the response of growing tissues to stress.
Freeze-dried samples were dissolved in 500 μl of methanol, including two internal standard compounds (4 μM methionine sulfone used for compensation of the peak area after capillary electrophoresis-mass spectrometry (CE-MS) analysis and 0.2 μM D4-ACC for quantification of ACC. After addition of 500 μl of chloroform and 200 μl of water, the mixture was vortexed for 3 min and centrifuged at 20,400 g for 3 min at 4° C. The upper layer was evaporated for 30 min at 45° C. by a centrifugal concentrator and then separated into two layers. The upper layer (100-200 μl) was centrifugally filtered through a Millipore 5-kD cutoff filter at 9,100 g for 90 min. […] The final solution (10 μL) was used to quantify the contents of ACC by cation analysis using CE-MS. […]

[1] = system: Arabidopsis thaliana leaf 3; test: Leaf 3 area of ACC deaminase transgenic lines and wild type after 48 hours on mild mannitol stress; format: in vivo; conditions: wild type of the pGRF5::bACD experiment; 48 hours on 25 mM mannitol
Excerpt: In this experiment we aimed for a downregulation of the ethylene signaling pathway only in proliferating leaf cells (chimeric genes with 2 different meristematic promoters: p4TM1 and pGR5) as compared to a downregulation of the ethylene signaling in the entire plant (chimeric gene with the […] promoter). The transgene which was used for downregulation of the ethylene signaling was the ACC deaminase (a bacterial form and a plant form), an enzyme that degrades the ethylene precursor ACC. […]
Plant were transferred to plates containing 25 mM mannitol, hereby exposing them to mild mannitol stress, at a stage where the third leaf is fully proliferating, allowing to study the response of proliferating leaf cells to stress. After 48 hours on mild mannitol stress, leaf 3 was microdissected and its size was measured to calculate the extent of growth inhibition. […]
The plant growth and stress set-up was the same as previously described (Skirycz et al (2011) Plant Cell 23: 1876-1888). […] Slides were photographed, and leaf area was measured using ImageJ 1.41o.

SMILES: OC[C@@H](O)[C@@H](O)[C@H](O)[C@H](O)CO [mannitol]
- increase of ACC levels in stressed versus control shoots (ACC levels in shoots; 1 h after stress onset, not significant): 30%
- increase of ACC levels in stressed versus control shoots (ACC levels in shoots; 10 h after stress onset, significant): more than 2 fold
- growth inhibition of leaf 3 area [1]: about 10%
